Data from patent US11708348B2, “Protease inhibitors for treatment of coronavirus infections” (The Scripps Research Institute, priority 2021, dated 2023).
Like-named read-outs stand apart in the source and are kept apart here.

Tested on: SARS-CoV-2 strain USA-WA1/2020
Experiment: microbe, parasite or virus in culture
Assay type: cell-based
Conditions: Severe acute respiratory syndrome coronavirus 2, HeLa-ACE2, 24 h, HeLa-ACE2 cells, SARS-CoV-2 infection, 24 h, read-out: EC50, uM (Hela)

Structure (SMILES) | EC50 [µM] | EC50 (class symbols) [µM] | also measured
CC(C)(F)C[C@@H](O)C(=O)N1CC2(CC2)C[C@H]1C(=O)N[C@@H](C[C@@H]1CCNC1=O)C(=O)COC(F)(F)F [Compound 754, (S)-5-((R)-4-fluoro-2-hydroxy-4-methylpentanoyl)-N-((S)-3-oxo-1-((S)-2-oxopyrrolidin-3-yl)-4-(trifluoromethoxy)butan-2-yl)-5-azaspiro[2.4]heptane-6-carboxamide] | 0.05 to 0.2 | – | –
CC(C)C[C@H](NC(=O)C(=O)Nc1ccc(F)cc1)C(=O)N[C@@H](C[C@@H]1CCNC1=O)C(=O)COc1c(F)c(F)cc(F)c1F [Compound 38, N1-(4-fluorophenyl)-N2-((S)-4-methyl-1-oxo-1-(((S)-3-oxo-1-((S)-2-oxopyrrolidin-3-yl)-4-(2,3,5,6-tetra-fluorophenoxy)butan-2-yl)amino)pentan-2-yl)oxalamide] | – | < 0.05 | –
C=C[C@@H]1C[C@]1(NC(=O)c1cc2cc(F)ccc2[nH]1)C(=O)N[C@@H](C[C@@H]1CCNC1=O)C(=O)COC(F)(F)F [Compound 259, 5-fluoro-N-((1R,2S)-1-(((S)-3-oxo-1-((S)-2-oxopyrrolidin-3-yl)-4-(trifluoromethoxy)butan-2-yl)carbamoyl)-2-vinylcyclopropyl)-1H-indole-2-carboxamide] | – | – | EC50 (bound printed in cell): > 1 µM
O=C(NC12CC(F)(C1)C2)C(=O)N[C@]1(C(=O)N[C@@H](C[C@@H]2CCNC2=O)C(=O)COC(F)(F)F)C[C@H]1C1CC1 [Compound 579, N1-(3-fluorobicyclo-[1.1.1]pentan-1-yl)-N2-((1S,2R)-2-(((S)-3-oxo-1-((S)-2-oxopyrrolidin-3-yl)-4-(trifluoromethoxy)butan-2-yl)carbamoyl)-[1,1′-bi(cyclopropan)]-2-yl)oxalamide] | – | – | EC50 (given as bound): > 1 µM
CC(C)(C)c1ccccc1NC(=O)C(=O)N[C@@H](CC1CCCCC1)C(=O)N[C@@H](C[C@@H]1CCNC1=O)C(=O)COc1c(F)c(F)cc(F)c1F [Compound 117, Nl-(2-(tert-butyl)phenyl)-N2-((S)-3-cyclohexyl-1-oxo-1-(((S)-3-oxo-1-((S)-2-oxopyrrolidin-3-yl)-4-(2,3,5,6-tetrafluorophenoxy)butan-2-yl)amino)propan-2-yl)oxalamide] | – | < 0.05 | –
CC12COC(C(=O)N3C[C@@H]4CCC[C@@H]4[C@H]3C(=O)N[C@@H](C[C@@H]3CCNC3=O)C(=O)COC(F)(F)F)(C1)C2 [Compound 312, (1S,3aR,6aS)-2-(4-methyl-2-oxabicyclo-[2.1.1]hexane-1-carbonyl)-N-((S)-3-oxo-1-((S)-2-oxopyrrolidin-3-yl)-4-(trifluoromethoxy)butan-2-yl)octahydrocyclo-penta[c]pyrrole-1-carboxamide] | – | 0.05 to 0.2 | –
O=C(NCC(F)(F)F)C(=O)N1[C@@H]2CC[C@@H](C2)[C@H]1C(=O)N[C@@H](C[C@@H]1CCNC1=O)C(=O)COC(F)(F)F [Compound 542, (1R,3S,4S)-N-((S)-3-oxo-1-((S)-2-oxopyrrolidin-3-yl)-4-(trifluoromethoxy)butan-2-yl)-2-(2-oxo-2-((2,2,2-trifluoroethyl)-amino)acetyl)-2-azabicyclo[2.2.1]-heptane-3-carboxamide] | 0.05 to 0.2 | – | –
CC1(C)[C@@H]2[C@@H](C(=O)N[C@@H](C[C@@H]3CCNC3=O)C(=O)COC(F)(F)F)N(C(=O)C34CC(C(F)F)(CO3)C4)C[C@@H]21 [Compound 322, (1R,2S,5S)-3-(4-(difluoromethyl)-2-oxabicyclo[2.1.1]-hexane-1-carbonyl)-6,6-dimethyl-N-((S)-3-oxo-1-((S)-2-oxopyrrolidin-3-yl)-4-(trifluoromethoxy)butan-2-yl)-3-azabicyclo-[3.1.0]hexane-2-carboxamide] | – | 0.05 to 0.2 | –
CC1(NC(=O)C(=O)N[C@@H](CC2CC2)C(=O)N[C@@H](C[C@@H]2CCNC2=O)C(=O)COC(F)(F)F)CC(F)(F)C1 [Compound 220, N1-((S)-3-cyclopropyl-1-oxo-1-(((S)-3-oxo-1-((S)-2-oxopyrrolidin-3-yl)-4-(trifluoromethoxy)butan-2-yl)amino)propan-2-yl)-N2-(3,3-difluoro-1-methylcyclobutyl)-oxalamide] | – | < 0.05 | –
CC(C)(C#N)NC(=O)C(=O)N1C[C@@H]2CCC[C@@H]2[C@H]1C(=O)N[C@@H](C[C@@H]1CCNC1=O)C(=O)COC(F)(F)F [Compound 566, (1S,3aR,6aS)-2-(2-((2-cyanopropan-2-yl)amino)-2-oxoacetyl)-N-((S)-3-oxo-1-((S)-2-oxopyrrolidin-3-yl)-4-(trifluoromethoxy)butan-2-yl)octahydrocyclo-penta[c]pyrrole-1-carboxamide] | 0.05 to 0.2 | – | –
O=C1NCC[C@H]1C[C@H](NC(=O)[C@@H]1CC2(CC2)CN1C(=O)[C@@H](O)c1ccccc1)C(=O)COC(F)(F)F [Compound 415, (S)-5-((S)-2-hydroxy-2-phenylacetyl)-N-((S)-3-oxo-1-((S)-2-oxopyrrolidin-3-yl)-4-(trifluoromethoxy)butan-2-yl)-5-azaspiro[2.4]heptane-6-carboxamide] | 0.05 to 0.2 | – | –
O=C1NCC[C@H]1C[C@H](NC(=O)[C@@H]1CC2(CC2)CN1C(=O)c1ncccc1F)C(=O)COC(F)(F)F [Compound 593, (S)-5-(3-fluoropicolinoyl)-N-((S)-3-oxo-1-((S)-2-oxopyrrolidin-3-yl)-4-(trifluoromethoxy)butan-2-yl)-5-azaspiro[2.4]-heptane-6-carboxamide] | 0.2 to 0.5 | – | –
CC(C)(C)[C@@H](O)C(=O)N1CC2(CC2)C[C@H]1C(=O)N[C@@H](C[C@@H]1CCNC1=O)C(=O)COC(F)(F)F [Compound 342, (S)-5-((R)-2-hydroxy-3,3-dimethylbutanoyl)-N-((S)-3-oxo-1-((S)-2-oxopyrrolidin-3-yl)-4-(trifluoromethoxy)butan-2-yl)-5-azaspiro[2.4]heptane-6-carboxamide] | – | 0.05 to 0.2 | –
O=C(Nc1ccccc1F)C(=O)N1C[C@H]2C[C@]1(C(=O)N[C@@H](C[C@@H]1CCNC1=O)C(=O)COC(F)(F)F)C2 [Compound 562, (1 s,4R)-2-(2-((2-fluorophenyl)amino)-2-oxoacetyl)-N-((S)-3-oxo-1-((S)-2-oxopyrrolidin-3-yl)-4-(trifluoromethoxy)butan-2-yl)-2-azabicyclo-[2.1.1]hexane-1-carboxamide] | – | – | EC50 (given as bound): > 1 µM
CC(C)C[C@H](NC(=O)OCc1cccc(Cl)c1)C(=O)N[C@@H](C[C@@H]1CCNC1=O)C(=O)COC(F)(F)F [Compound 199, 3-chlorobenzyl ((S)-4-methyl-1-oxo-1-(((S)-3-oxo-1-((S)-2-oxopyrrolidin-3-yl)-4-(trifluoromethoxy)butan-2-yl)amino)pentan-2-yl)carbamate] | – | < 0.05 | –
CC(C)C[C@H](NC(=O)C(=O)NC12CCC(F)(CC1)CC2)C(=O)N[C@@H](C[C@@H]1CCNC1=O)C(=O)COC(F)(F)F [Compound 251, N1-(4-fluorobicyclo-[2.2.2]octan-1-yl)-N2-((S)-4-methyl-1-oxo-1-(((S)-3-oxo-1-((S)-2-oxopyrrolidin-3-yl)-4-(trifluoromethoxy)butan-2-yl)amino)pentan-2-yl)oxalamide] | – | < 0.05 | –
CCC[C@@H](O)C(=O)N1C[C@@H]2CCC[C@@H]2[C@H]1C(=O)N[C@@H](C[C@@H]1CCNC1=O)C(=O)COC(F)(F)F [Compound 425, (1S,3aR,6aS)-2-((R)-2-hydroxypentanoyl)-N-((S)-3-oxo-1-((S)-2-oxopyrrolidin-3-yl)-4-(trifluoromethoxy)butan-2-yl)octahydrocyclo-penta[c]pyrrole-1-carboxamide] | 0.05 to 0.2 | – | –
CC(C)[C@@H](O)C(=O)N1C[C@@H]2CCC[C@@H]2[C@H]1C(=O)N[C@@H](C[C@@H]1CCNC1=O)C(=O)COC(F)(F)F [Compound 359, (1S,3aR,6aS)-2-((R)-2-hydroxy-3-methylbutanoyl)-N-((S)-3-oxo-1-((S)-2-oxopyrrolidin-3-yl)-4-(trifluoromethoxy)butan-2-yl)octahydrocyclo-penta[c]pyrrole-1-carboxamide] | – | 0.05 to 0.2 | –
CC(C)(C)NC(=O)C(=O)N1C[C@@H]2CC(F)(F)C[C@@H]2[C@H]1C(=O)N[C@@H](C[C@@H]1CCNC1=O)C(=O)COC(F)(F)F [Compound 520, (1S,3aR,6aS)-2-(2-(tert-butylamino)-2-oxoacetyl)-5,5-difluoro-N-((S)-3-oxo-1-((S)-2-oxopyrrolidin-3-yl)-4-(trifluoromethoxy)butan-2-yl)octahydrocyclo-penta[c]pyrrole-1-carboxamide] | 0.05 to 0.2 | – | –
O=C1NCC[C@H]1C[C@H](NC(=O)[C@@H]1[C@H]2CCC[C@H]2CN1C(=O)c1noc2c1CNCC2)C(=O)COC(F)(F)F [Compound 556, (1S,3aR,6aS)-N-((S)-3-oxo-1-((S)-2-oxopyrrolidin-3-yl)-4-(trifluoromethoxy)butan-2-yl)-2-(4,5,6,7-tetrahydroisoxazolo[4,5-c]pyridine-3-carbonyl)octahydro-cyclopenta[c]pyrrole-1-carboxamide] | – | – | EC50 (given as bound): > 1 µM
CC(O)C(F)(F)C(=O)N1CC2(CC2)C[C@H]1C(=O)N[C@@H](C[C@@H]1CCNC1=O)C(=O)COC(F)(F)F (stereo partly drawn) [Compound 756, (6S)-5-(2,2-difluoro-3-hydroxybutanoyl)-N-((S)-3-oxo-1-((S)-2-oxopyrrolidin-3-yl)-4-(trifluoromethoxy)butan-2-yl)-5-azaspiro[2.4]heptane-6-carboxamide] | 0.05 to 0.2 | – | –
O=C1NCC[C@H]1C[C@H](NC(=O)[C@@H]1CC2(CC2)CN1C(=O)CNCC(F)(F)F)C(=O)COC(F)(F)F [Compound 672, (S)-N-((S)-3-oxo-1-((S)-2-oxopyrrolidin-3-yl)-4-(trifluoromethoxy)butan-2-yl)-5-((2,2,2-trifluoroethyl)glycyl)-5-azaspiro[2.4]heptane-6-carboxamide] | 0.05 to 0.2 | – | –
